# Laboratory results as given in patent US20240252488A1 (KOREA RESEARCH INSTITUTE OF CHEMICAL TECHNOLOGY, priority 2020, published 2024).
# How the values were obtained:
# MLKL [1] = target: T1, MLKL (Homo sapiens, UniProt Q8NB16); assay: Measurement of binding affinity with MLKL receptor (competitive binding assay, Kd); design: made in house; host or cells: HEK 293 cell line (T7 phage in E. coli BL21-derived host is also described)
# T1 sequence (Q8NB16 1-471): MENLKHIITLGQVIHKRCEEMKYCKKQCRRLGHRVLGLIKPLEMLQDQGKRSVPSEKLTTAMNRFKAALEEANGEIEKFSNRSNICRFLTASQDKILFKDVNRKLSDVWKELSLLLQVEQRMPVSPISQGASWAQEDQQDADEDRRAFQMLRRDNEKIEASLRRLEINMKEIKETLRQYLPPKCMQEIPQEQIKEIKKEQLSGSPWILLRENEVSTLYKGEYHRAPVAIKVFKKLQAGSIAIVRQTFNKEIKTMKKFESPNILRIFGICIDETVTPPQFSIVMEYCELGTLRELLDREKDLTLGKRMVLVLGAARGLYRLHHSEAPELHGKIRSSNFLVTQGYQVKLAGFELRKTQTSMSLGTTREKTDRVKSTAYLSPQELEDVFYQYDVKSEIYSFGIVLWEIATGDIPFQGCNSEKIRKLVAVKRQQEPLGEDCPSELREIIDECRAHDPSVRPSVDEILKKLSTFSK
# In short: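 Competitive displacement of MLKL, expressed in HEK 293 cells and DNA-tagged for qPCR, from immobilized ligand on biotin-blocked beads. Compounds were added from 111× DMSO stocks (final DMSO 0.9%). Kinase left in the eluates was quantified by qPCR to give Kd.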
# MLKL [2] = target: T1, MLKL; assay: MLKL degradation assay in HepG2 cell line (western blot); format: cell-based; design: endogenous in cells; host or cells: HepG2 or HaCaT; settings: cell line not given; for Degradation assay (Degradation %) 10 μM: compound 10 μM; for Degradation assay (Degradation %) 1 μM: compound 1 μM
# In short: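 HepG2, cpd final 1 or 10 μM, 20-24 h, 37 °C/5% CO2; RIPA lysis, BCA-normalized, 10-15 μg/lane SDS-PAGE, western blot, ECL read-out.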
# FADD−/− Jurkat cells = assay: Necroptosis inhibition assay, TNF-α-induced necroptosis (CellTiter-Glo 2.0); format: cell-based, human; settings: TNF-α 15 ng/mL; for Necroptosis inhibition assay (Rescue %) 1 μM: compound 1 μM; for Necroptosis inhibition assay (Rescue %) 10 μM: compound 10 μM
# In short: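 Cmpd 0.1/1/10 μM final, 30 min RT preincubation; TNF-α 15 ng/mL final; 20–24 h, 37° C, 5% CO2. Readout: ATP luminescence (reagent 1:3 in PBS), 0.5 s/well. Cytotoxicity and % necroptosis inhibition calculated from signal.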
Compound,Kd (MLKL [1]) [nM],Degradation assay (Degradation %) 10 μM (MLKL [2]) [%],Necroptosis inhibition assay (Rescue %) 1 μM (FADD−/− Jurkat cells) [%],Necroptosis inhibition assay (Rescue %) 10 μM (FADD−/− Jurkat cells) [%],Degradation assay (Degradation %) 1 μM (MLKL [2]) [%],Necroptosis inhibition assay (Rescue %) 1 μM (FADD−/− Jurkat cells; FADD−/− Jurkat cells) [%],Necroptosis inhibition assay (Rescue %) 10 μM (FADD−/− Jurkat cells; FADD−/− Jurkat cells) [%]
"Nc1ncc(-c2cnn(C3CCN(CCCCCCCCCCNC(=O)C4CN(c5ccc6c(c5)C(=O)N(C5CCC(=O)NC5=O)C6=O)C4)CC3)c2)nc1C(=O)O[C@@H](C(=O)Nc1ccc(F)cc1)c1ccccc1 (stereo partly drawn) [TDH-159, (R)-2-((4-fluorophenyl)amino)-2-oxo-1-phenylethyl 3-amino-6-(1-(1-(10-(1-(2-(2,6-dioxopiperidin-3-yl)-1,3-dioxoisoindolin-5-yl)azetidine-3-carboxamido)decyl)piperidin-4-yl)-1H-pyrazol-4-yl)pyrazine-2-carboxylate]",18,29.21,33.57,34.1,,,
"Nc1ncc(-c2cnn(C3CCN(CCCCCCCCCCNC(=O)C4CCN(c5ccc6c(c5)C(=O)N(C5CCC(=O)NC5=O)C6=O)CC4)CC3)c2)nc1C(=O)O[C@@H](C(=O)Nc1ccc(F)cc1)c1ccccc1 (stereo partly drawn) [TDH-157, (R)-2-((4-fluorophenyl)amino)-2-oxo-1-phenylethyl 3-amino-6-(1-(1-(10-(1-(2-(2,6-dioxopiperidin-3-yl)-1,3-dioxoisoindolin-5-yl)piperidine-4-carboxamido)decyl)piperidin-4-yl)-1H-pyrazol-4-yl)pyrazine-2-carboxylate]",47,64.73,37.7,45.37,62.45,,
"Nc1ncc(-c2cnn(C3CCN(C(=O)C4CCN(C(=O)COc5ccc6c(c5)C(=O)N(C5CCC(=O)NC5=O)C6=O)CC4)CC3)c2)nc1C(=O)OC(C(=O)Nc1ccc(F)cc1)c1ccccc1 (centres unmarked) [TDH-278, 2-((4-fluorophenyl)amino)-2-oxo-1-phenylethyl 3-amino-6-(1-(1-(1-(2-((2-(2,6-dioxopiperidin-3-yl)-1,3-dioxoisoindolin-5-yl)oxy)acetyl)piperidine-4-carbonyl)piperidin-4-yl)-1H-pyrazol-4-yl)pyrazine-2-carboxylate]",1.4,75.28,63.64,39.23,64.63,,
"COc1ccc(C(=O)N2CCC(CN3CCC(CCN4CCC(n5cc(-c6cnc(N)c(C(=O)O[C@@H](C(=O)Nc7ccc(F)cc7)c7ccccc7)n6)cn5)CC4)CC3)CC2)cc1N1CCC(=O)NC1=O [TDH-505, (R)-2-((4-fluorophenyl)amino)-2-oxo-1-phenylethyl 3-amino-6-(1-(1-(2-(1-((1-(3-(2,4-dioxotetrahydropyrimidin-1(2H)-yl)-4-methoxybenzoyl)piperidin-4-yl)methyl)piperidin-4-yl)ethyl)piperidin-4-yl)-1H-pyrazol-4-yl)pyrazine-2-carboxylate]",0.36,94.63,,,90.52,102.00,76.87
"Nc1ncc(-c2ccc(N3CCN(CC4CCN(C(=O)COc5ccc6c(c5)C(=O)N(C5CCC(=O)NC5=O)C6=O)CC4)CC3)nc2)nc1C(=O)OC(C(=O)Nc1ccc(F)cc1)c1ccccc1 (centres unmarked) [TDH-256, 2-((4-fluorophenyl)amino)-2-oxo-1-phenylethyl 3-amino-6-(6-(4-((1-(2-((2-(2,6-dioxopiperidin-3-yl)-1,3-dioxoisoindolin-5-yl)oxy)acetyl)piperidin-4-yl)methyl)piperazin-1-yl)pyridin-3-yl)pyrazine-2-carboxylate]",78,24.99,45.87,44.55,36.84,,
"Nc1ncc(-c2cnn(C3CCN(C(=O)C4CCN(C(=O)CCc5cccc6c5C(=O)N(C5CCC(=O)NC5=O)C6=O)CC4)CC3)c2)nc1C(=O)O[C@@H](C(=O)Nc1ccc(F)cc1)c1ccccc1 (stereo partly drawn) [TDH-380, (R)-2-((4-fluorophenyl)amino)-2-oxo-1-phenylethyl 3-amino-6-(1-(1-(1-(3-(2-(2,6-dioxopiperidin-3-yl)-1,3-dioxoisoindolin-4-yl)propanoyl)piperidine-4-carbonyl)piperidin-4-yl)-1H-pyrazol-4-yl)pyrazine-2-carboxylate]",1.5,95.41,38.37,35.96,86.88,,
"Nc1ncc(-c2cnn(C3CCN(CCOCCOCCOCCNC(=O)CNc4ccc5nnn(C6CCC(=O)NC6=O)c(=O)c5c4)CC3)c2)nc1C(=O)O[C@@H](C(=O)Nc1ccc(F)cc1)c1ccccc1 (stereo partly drawn) [TDH-175, (R)-2-((4-fluorophenyl)amino)-2-oxo-1-phenylethyl 3-amino-6-(1-(1-(1-((3-(2,6-dioxopiperidin-3-yl)-4-oxo-3,4-dihydrobenzo[d][1,2,3]triazin-6-yl)amino)-2-oxo-6,9,12-trioxa-3-azatetradecan-14-yl)piperidin-4-yl)-1H-pyrazol-4-yl)pyrazine-2-carboxylate]",7.3,43.56,18.82,35.89,48.93,,
"Nc1ncc(-c2cnn(C3CCN(C(=O)CCC4CCN(C(=O)C5CCN(c6cccc7c6C(=O)N(C6CCC(=O)NC6=O)C7=O)CC5)CC4)CC3)c2)nc1C(=O)O[C@@H](C(=O)Nc1ccc(F)cc1)c1ccccc1 (stereo partly drawn) [TDH-417, (R)-2-((4-fluorophenyl)amino)-2-oxo-1-phenylethyl 3-amino-6-(1-(1-(3-(1-(1-(2-(2,6-dioxopiperidin-3-yl)-1,3-dioxoisoindolin-4-yl)piperidine-4-carbonyl)piperidin-4-yl)propanoyl)piperidin-4-yl)-1H-pyrazol-4-yl)pyrazine-2-carboxylate]",3.5,63.85,,,87.84,24.41,14.37
"Nc1ncc(-c2cnn(C3CCN(C(=O)c4cn(C5CCN(C(=O)CNc6cccc7c6C(=O)N(C6CCC(=O)NC6=O)C7=O)CC5)cn4)CC3)c2)nc1C(=O)O[C@@H](C(=O)Nc1ccc(F)cc1)c1ccccc1 (stereo partly drawn) [TDH-356, (R)-2-((4-fluorophenyl)amino)-2-oxo-1-phenylethyl 3-amino-6-(1-(1-(1-(1-((2-(2,6-dioxopiperidin-3-yl)-1,3-dioxoisoindolin-4-yl)glycyl)piperidin-4-yl)-1H-imidazole-4-carbonyl)piperidin-4-yl)-1H-pyrazol-4-yl)pyrazine-2-carboxylate]",4.6,,5.27,0.50,22.83,,
"Nc1ncc(-c2cnn(C3CCN(CCCCCCNC(=O)CNc4ccc5c(c4)C(=O)N(C4CCC(=O)NC4=O)C5=O)CC3)c2)nc1C(=O)O[C@@H](C(=O)Nc1ccc(F)cc1)c1ccccc1 (stereo partly drawn) [TDH-132, (R)-2-((4-fluorophenyl)amino)-2-oxo-1-phenylethyl 3-amino-6-(1-(1-(6-(2-((2-(2,6-dioxopiperidin-3-yl)-1,3-dioxoisoindolin-5-yl)amino)acetamido)hexyl)piperidin-4-yl)-1H-pyrazol-4-yl)pyrazine-2-carboxylate]",1.2,50.03,75.06,54.76,40.32,,
"Nc1ncc(-c2cnn(C3CCN(CCC4CCN(C5CC6(CCN(C(=O)Cc7cccc(NC8=CC(=O)N(C9CCC(=O)NC9=O)C8=O)c7)CC6)C5)CC4)CC3)c2)nc1C(=O)O[C@@H](C(=O)Nc1ccc(F)cc1)c1ccccc1 (stereo partly drawn) [TDH-509, (R)-2-((4-fluorophenyl)amino)-2-oxo-1-phenylethyl 3-amino-6-(1-(1-(2-(1-(7-(2-(3-((1-(2,6-dioxopiperidin-3-yl)-2,5-dioxo-2,5-dihydro-1H-pyrrol-3-yl)amino)phenyl)acetyl)-7-azaspiro[3.5]nonan-2-yl)piperidin-4-yl)ethyl)piperidin-4-yl)-1H-pyrazol-4-yl)pyrazine-2-carboxylate]",0.78,73.70,,,76.18,19.06,5.55
